From the SangsterLogP compilation

assay: from Langlois, M.; Dubost, J.; Audry, E.; Dallet, P.; Colleter, J. (1989). Simultaneous determination of physicochemical constants usable in QSAR in a series of alpha-adrenergic amines. Analusis : chimie …

logP | SMILES
3.04 | O=[N+]([O-])c1cccc(C2NCCc3c2[nH]c2ccccc32)c1 (centres undefined)
3.58 | Clc1ccc(C2NCCc3c2[nH]c2ccccc32)c(Cl)c1 (centres undefined)
3.16 | Fc1ccccc1C1NCCc2c1[nH]c1ccccc21 (centres undefined)
3.69 | c1ccc2c3c([nH]c2c1)C(c1ccc2c(c1)OCO2)NCC3 (centres undefined)
3.38 | Clc1ccc(C2NCCc3c2[nH]c2ccccc32)cc1Cl (centres undefined)
3.33 | O=[N+]([O-])c1ccc(Cl)c(C2NCCc3c2[nH]c2ccccc32)c1 (centres undefined)
3.47 | c1ccc(C(CC2NCCc3c2[nH]c2ccccc32)c2ccccc2)cc1 (centres undefined)
3.34 | Clc1cccc(Cl)c1C1NCCc2c1[nH]c1ccccc21 (centres undefined)
3.47 | Clc1cccc(C2NCCc3c2[nH]c2ccccc32)c1 (centres undefined)
